Test results reported in article PMC7440915, “Discovery of surrogate agonists for visceral fat Treg cells that modulate metabolic indices in vivo” (eLife, 2020).
“Also recorded” adds a separate entry of the source. Where no end group is shown, it is not given here.

Tests used:
HFD-fed B6.CD45.1^+ mice = assay: Metabolic indices (ITT, GTT, fasting insulin, body weight) in HFD-fed mice after vTreg53 Treg transfer and immunization; assay type: in vivo, mouse; conditions: n ≥ 7
Source text: Figure 7. Immunization with Fat1562 following vTreg53 Treg transfer ameliorates HFD-induced insulin resistance. (A–F) Metabolic indices of mice treated as in Figure 6A (n ≥ 7). (A) Body weight. (B) Insulin tolerance test (ITT). (C) Area over curve for ITT analysis. (D) Glucose tolerance test (GTT). (E) Area under curve for GTT analysis. (F) Plasma insulin levels after 6 hr of fasting. Data shown are representative of at least two independent experiments. (G) Scheme of the anti-TNFα experiment. (H) Number of total Treg cells in VAT (n ≥ 5). (I) Number of CD11c^hi inflammatory macrophages in VAT (n ≥ 5). (J) ITT (n ≥ 5). (K) Area over curve for ITT analysis (n ≥ 5). Data are mean ± SD. Figure 7—figure supplement 1. Absolute blood glucose levels. ITT analysis of mice transferred with vTreg53 TCR-tg Tregs and immunized with adjuvant/Fat1562 or adjuvant alone. Data shown are representative of at least two independent experiments (n ≥ 5). [drawing 7]
To assess early Treg proliferation following peptide stimulation in vivo, 0.4 million Treg cells were sorted from pooled Spl and LNs of 6-8wk-old male CD45.2^+ Tg^+ Foxp3-GFP^KI/y mice by Moflo, labeled by the CellTrace Violet dye (ThermoFisher Scientific), and were i.v.-injected into 6-8wk old male B6.CD45.1^+ mice. The next day, the recipient mice were injected with 200 µg peptides emulsified in CFA (CFA/peptides) s.c. on the lower back. Proliferation of clonotype^+ Tregs in the spleen was determined three days later. To examine the expansion of VAT-Treg cells by peptide immunization, we sorted 0.4 million Treg cells from pooled Spl/LNs of 6-8wk-old male CD45.2^+ Tg^+ Foxp3-GFP^KI/y mice and transferred them i.v. into 6-8wk old male B6.CD45.1^+ mice. Six weeks later, the recipient mice were immunized with 200 µg CFA/peptides s.c. on the lower back, and one week later were boosted with 100 μg IFA/peptides i.p. After another week, clonotype^+ CD45.2^+ Treg cells from the Spl/LNs or VAT of recipient mice were analyzed by flow cytometry and double-sorted for ultra-low-input RNA-seq. […] One week after the IFA/peptides injection, metabolic parameters (GTT, ITT, fasting plasma insulin levels) and the composition of different immunocytes were determined.
For GTT, mice were fasted for 15 hr overnight, weighed, and tested for fasting blood-glucose concentrations. […] Blood-glucose levels were measured before and 20, 40, 60, 90, and 120 min after glucose injection. […] Blood-glucose levels were measured before and 20, 40, 60, 90, and 120 min after insulin injection, and were normalized to the blood-glucose levels before insulin injection. The area under the curve (for GTT) or area over the curve (for ITT) were calculated using GraphPad Prism 7.0.

vTreg53 Treg cells = assay: RNA-seq of transferred clonotype^+ Treg cells after immunization; assay type: in vivo, mouse
Source text: Figure 5. Transcriptional analyses of vTreg53 Treg cells stimulated by Fat1562 in vivo. (A–C) CD45.2^+ vTreg53 Treg cells were transferred i.v. into CD45.1^+ B6 mice. 6 weeks later, the recipient mice were immunized with CFA alone or CFA/Fat1562 s.c., and one week later, boosted with IFA alone or IFA/Fat1562 i.p. CD45.2^+ clonotype^+ Treg cells were sorted from Spl/LNs or VAT of the recipient mice one week later for RNA-Seq. (A) Volcano plot comparing gene expression of transferred clonotype^+ Treg cells in the VAT and Spl/LNs of recipient mice immunized with adjuvant alone (left) or with adjuvant/Fat1562 (right). VAT-Treg signature genes are highlighted in red (induced) or blue (repressed). The number of genes from each signature preferentially expressed by one or the other population are shown at the top. (B) GSEA analysis of top KEGG pathways (p<0.05) that are enriched in cells activated by adjuvant/Fat1562 compared with adjuvant alone in VAT (left) or Spl/LN (right). NES, normalized enrichment score. FDR, false discovery rate. (C) Normalized reads of Pparg transcript in CD45.2^+ clonotype^+ Treg cells sorted from mice immunized with adjuvant alone or adjuvant/Fat1562. Data are mean ± SD. (D) Volcano plot comparing gene expression of transferred clonotype^+ Treg cells in mice immunized with adjuvant/Fat1562 and adjuvant alone in the VAT (left) and spleen (right). Representative transcripts are highlighted.
6–8 week-old B6.CD45.1^+ mice were transferred with Tg^+ Treg cells from Spl/LNs, and six weeks later were primed with 200 μg CFA/peptides s.c. and boosted with 100 μg IFA/peptides i.p. as described in the ‘Treg transfer and peptide immunization’ section. Biological replicates (n ≥ 2) of 1000 clonotype^+ CD45.2^+ Treg cells from the Spl/LNs or VAT of recipient mice were double-sorted by Moflo directly into 5ɥl lysis buffer (TCL Buffer (Qiagen) with 1% 2-Mercaptoethanol), Smart-seq2 libraries were prepared as previously described ([Picelli et al., 2014]) with slight modifications. Briefly, total RNA was captured and purified on RNAClean XP beads (Beckman Coulter). Polyadenylated mRNA was then selected using an anchored oligo(dT) primer (5′–[…]30VN-3) and converted to cDNA via reverse transcription. First-strand cDNA was subjected to limited PCR amplification followed by Tn5 transposon-based fragmentation using the Nextera XT DNA Library Preparation Kit (Illumina). Samples were then PCR amplified for 18 cycles using barcoded primers such that each sample carried a specific combination of eight-base Illumina P5 and P7 barcodes and were pooled together prior to Smart sequencing. Smart-seq paired-end sequencing was performed on an Illumina NextSeq500 using 2 × 38 bp reads with no further trimming. Transcripts were quantified by the Broad Technology Labs computational pipeline with Cuffquant version 2.2.1 ([Trapnell et al., 2012]). Normalized reads were further filtered by minimal expression (>10) and coefficient of variation (<0.7), and then analyzed by Multiplot Studio in the GenePattern software package. Pathway enrichment analysis was done using GSEA.

TMYKNPRPMAATG [Fat1562]
glucose tolerance (HFD-fed B6.CD45.1^+ mice; GTT, 2.0 g glucose per kg i.p., 15 hr fast): promoted glucose tolerance
insulin sensitivity (HFD-fed B6.CD45.1^+ mice; ITT, 0.6 U insulin per kg i.p., 6 hr fast): improved systemic insulin sensitivity
body weight (HFD-fed B6.CD45.1^+ mice; adjuvant/Fat1562 vs adjuvant alone): similar
fasting plasma insulin levels (HFD-fed B6.CD45.1^+ mice; after 6 hr of fasting): reduced fasting plasma insulin levels
Pparg mRNA levels in Spl/LN relative to VAT (vTreg53 Treg cells; Spl/LN vs Fat1562-stimulated VAT Treg cells): substantially lower
Pparg mRNA levels (vTreg53 Treg cells; Treg cells stimulated by Fat1562 in vivo (Spl/LN)): significantly increased; also recorded: increase in Pparg mRNA levels
Lag3 and Tigit expression (vTreg53 Treg cells; VAT, adjuvant/Fat1562 vs adjuvant alone): upregulated
pathway enrichment in VAT Treg cells, GSEA (vTreg53 Treg cells; VAT, adjuvant/Fat1562 vs adjuvant alone: cell division and glycolysis): significant enrichment in pathways and transcripts related to cell division (E2F targets, G2M checkpoint, MYC targets, Mitotic spindle) and glycolysis
VAT-Treg signature gene expression (vTreg53 Treg cells; clonotype^+ VAT Treg cells, adjuvant/Fat1562): preserved the typical VAT-Treg characteristics; also recorded: maintained the typical VAT-Treg signature
cholesterol homeostasis genes (vTreg53 Treg cells; lymphoid organs, adjuvant/Fat1562 vs adjuvant alone (e.g. Pparg, Nfil3, Srebf2)): enrichment of genes involved in cholesterol homeostasis
inflammatory cytokine response genes (vTreg53 Treg cells; lymphoid organs, adjuvant/Fat1562 vs adjuvant alone, IFNα, IFNγ, TNFα): increased expression of genes associated with responses to inflammatory cytokines (IFNα, IFNγ, and TNFα)
